Results published in patent US20110158907A1, “DIPHENYL-HETEROARYL DERIVATIVES AND THEIR USE FOR BINDING AND IMAGING AMYLOID PLAQUES” (The Trustees of the Univeristy of Pennsylvania, priority 2007, published 2011).
Like-named read-outs stand apart in the source and are kept apart here.

Experiments:
fibrillar Aβ aggregates = fibrillar Aβ aggregates (Homo sapiens, UniProt P05067); conditions: read-out: inhibition constants (Ki) for binding to fibrillar Aβ aggregates; cited from earlier work
Amyloid Plaque [1] = biological target: T1, Amyloid Plaque (Homo sapiens, UniProt P05067); conditions: AD brain homogenates; read-out: Binding Affinity (Ki vs. ^125I-IMPY), published values; cited from earlier work
[2] = Organ distribution of [^125I] or [^18F]tracers in normal mice
Method: (§2) While under isoflurane anesthesia, 0.15 mL of a 0.1% bovine serum albumin solution containing [^125I] or [^18F]tracers (5-10 μCi) was injected directly into the tail vein of ICR mice (22-25 g, male). The mice (n=3 for each time point) were sacrificed by cervical dislocation at designated time-points post injection. The organs of interest were removed and weighed, and the radioactivity was counted with an automatic gamma counter. The percentage dose per organ was calculated by a comparison of the tissue counts to suitably diluted aliquots of the injected material. The total activity of the blood was calculated under the assumption that it is 7% of the total body weight. The % dose/g of samples was calculated by comparing the sample counts with the count of the diluted initial dose.

[3] = Partition coefficient (1-octanol/buffer); type: physicochemical; conditions: 1-octanol / 0.1 M phosphate buffer pH 7.4
Method: Partition coefficients were measured by mixing the [^125I] or [^18F]tracer with 3 g each of 1-octanol and buffer (0.1 M phosphate, pH 7.4) in a test tube. The test tube was vortexed for 3 min at room temperature, followed by centrifugation for 5 min. Two weighed samples (0.5 g each) from the 1-octanol and buffer layers were counted in a well counter. The partition coefficient was determined by calculating the ratio of cpm/g of 1-octanol to that of buffer. Samples from the 1-octanol layer were re-partitioned until consistent partitions of coefficient values were obtained. The measurement was done in triplicate and repeated three times.
Partition coefficients were measured by mixing ^123I-33 with 3 g each of 1-octanol and buffer (0.1 M phosphate, pH 7.4) in a test tube. The test tube was vortexed for 3 min at room temperature, followed by centrifugation for 5 min. Two weighed samples (0.5 g each) from the 1-octanol and the buffer layer were counted in a well counter. The partition coefficient was determined by calculating the ratio of cpm/g of 1-octanol to that of the buffer. Samples from the 1-octanol layer were repartitioned until consistent partitions of,coefficient values were obtained from the third partition. The measurement was done in triplicate and repeated three times.

[4] = mouse; for brain washout index (brain2 min/brain30 min) / remaining in the brain: in vivo; for remaining in the brain: 2 h
Method: as §2

[5] = tested on: Aβ plaques in AD brain sections; assay: In vitro film autoradiography of macroarray brain sections; type: binding, human
Text: FIG. 5 depicts in vitro film autoradiography of macroarray brain sections constructed from AD and control cases. The Aβ plaques were clearly visualized with low background labeling with two preferred radiofluorinated probes of the present invention.
(§1) To compare different probes using similar sections of human brain tissue, human macro-array brain sections from 6 confirmed AD cases and one control subject were assembled. The presence and localization of plaques on the sections was confirmed with immunohistochemical staining with monoclonal Aβ antibody 4G8 (Sigma). The frozen sections were incubated with [^125I] and [^18F]tracers (200,000-250,000 cpm/200 μL) for 1 h at room temperature. The sections were then dipped in saturated lithium carbonate in 40% EtOH (two two-minute washes) and washed with 40% EtOH (one two-minute wash) followed by rinsing with water for 30 sec. After drying, the ^125I- or ^18F-labeled sections were exposed to Kodak Biomax MR film overnight.
[^18F]tracers: Brain sections from AD subjects were obtained by freezing the brain in powdered dry ice and cut into 20 micrometer-thick sections. The sections were incubated with [^18F]tracers (200,000-250,000 cpm/200 μl) for 1 hr at room temperature. The sections were then dipped in saturated Li2CO3 in 40% EtOH (two two-minute washes) and washed with 40% EtOH (one two-minute wash) followed by rinsing with water for 30 sec. After drying, the ^18F-labeled sections were exposed to Kodak MR film overnight. The results are depicted in the film in FIG. 2.
as §1, with “[^125I]tracers: To” for “To”, “The” for “The frozen”, “[^125I]tracers” for “[^125I] and [^18F]tracers”, “Li2CO3” for “lithium carbonate”, “^125I-labeled” for “^125I- or ^18F-labeled”
A macro-array block was constructed using postmortem human brain samples consisting of seven confirmed AD cases. […] In vitro film autoradiography was carried out using these novel ^125I or ^18F labeled diphenyltriazole probes. […] The labeling pattern was consistent with that observed by immunohistochemical labeling with an antibody (4G8) specific for Aβ (data not shown).

[6] = tested on: Aβ plaques in AD brain tissue homogenates; assay: Specific binding of radiolabeled ligands to AD and control brain tissue homogenates; parameters: species or system human; conditions: for specific binding, gray matter homogenates of AD / specific binding, white matter homogenates of AD brain: 0.06 nM [^125I]probe, 0.5 nM [^18F]probe
Method: FIG. 6 depicts specific binding of preferred embodiments of the present invention to pooled AD and control brain tissue homogenates. Gray and white matters were dissected from the cortical regions. Higher specific binding was detected mainly in gray matter of AD. Relatively low binding was measured in white matter homogenates of AD as well as in gray and white matter homogenates of the control brain.
AD postmortem brain tissues were obtained from University of Washington Alzheimer's Disease Research Center. The neuropathological diagnosis was confirmed by current criteria (NIA-Reagan Institute Consensus Group, 1997). Homogenates were then prepared from dissected gray matters from four pooled AD patients in phosphate buffered saline (PBS, pH 7.4) at the concentration of approximately 100 mg wet tissue/ml (motor-driven glass homogenizer with setting of 6 for 30 sec). The homogenates were aliquoted into 1 mL-portions and stored at −70° C. for up to 2 years without loss of binding signal.
Similarly, the specific binding of radioiodinated and radiofluorinated ligands (0.06 nM for [^125I]probe and 0.5 nM for [^18F]probe to homogenates, prepared from the gray and white matters of AD and control brain tissues, were carried out as described above. Nonspecific binding was determined in the presence of 2 μM of the corresponding nonradioactive probes.
To further characterize the specificity of plaque binding, we evaluated [^125I]10a and [^18F]17a by a direct in vitro binding assay using homogenates (from different brain regions) prepared from AD and control brain tissues.

[7] = Organ distribution of ^123I-33 in normal mice; type: in vivo, ICR mice; conditions: i.v.; for Biodistribution Brain / % total counted / Biodistribution Pancreas / Biodistribution Pancrease: normal male mice
Method: Total activities of blood were calculated under the assumption that they were 7% of the total body weight.

Amyloid Plaque [8] = biological target: T1, Amyloid Plaque; assay: Inhibition of ^125I-IMPY binding in AD brain homogenates; conditions: read-out: Binding Affinity (Ki vs. ^125I-IMPY)
Method: Postmortem brain tissue was obtained and neuropathological diagnosis was confirmed in accordance with the NIA-Reagan Institute Consensus Group criteria. Homogenates were then prepared from dissected gray matter, pooled in phosphate buffered saline and aliquoted into 1-ml portions (100 mg wet tissue/ml), which could be stored at −70° C. for 3-6 months without loss of binding signal.
For the binding assays brain homogenates were incubated with ^125I-IMPY (0.04-0.06 nM diluted in phosphate buffered saline (PBS)) and test compound (10^−5-10^−10 M diluted in PBS containing 0.1% bovine serum albumin (BSA)). Nonspecific binding was defined in the presence of IMPY (600 nM). The bound and free radioactivity was separated by vacuum filtration followed by 2×3 ml washes of PBS. Filters containing the bound ^125I ligand were assayed in a gamma counter.

CNS receptors = assay: Selectivity against CNS receptors; conditions: cell wraps r7-r10: No high affinity binding to any CNS receptors
Aβ plaques = assay: Labeling of Aβ plaques in AD sections by ^123I-33 at tracer concentrations; type: binding, human
[9] = Estimate of human dosimetry extrapolated from the mouse data; conditions: proposed 5 mCi human dose
Method: When administered i.v. to male mice, ^123I-33 entered the brain quickly and reached a peak brain concentration of 3.7% dose/g within 2 min post administration and fell to 0.25% dose/g within 60 min. […] At the proposed 5 mCi human dose the lower large intestine is estimated to receive approximately 3.8 rem, while the upper large intestine is estimated to receive approximately 3.3 rem of exposure.

T1 sequence (P05067 672-711 limits assumed): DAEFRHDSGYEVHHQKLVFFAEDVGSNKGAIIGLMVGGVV
fibrillar Aβ aggregates, sequence (P05067 672-711 limits assumed): as above

For `O=C(O)c1cc(/N=N/c2ccc(-c3ccc(/N=N/c4ccc(O)c(C(=O)O)c4)cc3)cc2)ccc1O` [CG, chrysamine-G], the Ki (fibrillar Aβ aggregates) is given as 370 nM.

In the case of `CC(=C(C#N)C#N)c1ccc2cc(N(C)CCF)ccc2c1` [FDDNP, 2-(1-{6-[(2-fluoroethyl)(methyl)amino]-2-naphthyl}ethylidene)malononitrile], the Ki (Amyloid Plaque [1]) is given as 239 nM.

For `CN(C)c1ccc(-c2cn(-c3ccc([125I])cc3)nn2)cc1` [[^125I]10b], the “brain washout index (brain2 min/brain30 min)” value [2] was 3.72 and the “log P” value [3] was 3.4.

In the case of `CN(C)c1ccc(-c2cn(-c3ccc(OCC[18F])cc3)nn2)cc1` [[^18F]17a], the “bone uptake (in vivo defluorination)” value [4] is reported as 4.64 % dose/g, the “brain washout index (brain2 min/brain30 min)” value [4] is reported as 2.34 and the “remaining in the brain” value [4] is reported as 1-2 % dose/g. The Aβ plaque labeling [5] was “most distinctive Aβ plaque-labeling”, the “white matter (background) labeling” value [5] was “minimal level of background in the white matter areas” and the “log P” value [3] was 2.7. The “specific binding signal, homogenates of control brain tissues (gray and white matters)” value [6] was “low”, the “specific binding, gray matter homogenates of AD” value [6] was “detected predominantly in the gray matter homogenates of AD” and the “specific binding, white matter homogenates of AD brain” value [6] was “very low or nonexistent”.

For `CNc1ccc(-c2cn(-c3ccc([125I])cc3)nn2)cc1` [[^125I]10a], the “brain washout index (brain2 min/brain30 min)” value [2] was 5.66, the “white matter (background) labeling” value [5] was “significant white matter labeling” and the “log P” value [3] was 3.0. The “specific binding signal, homogenates of control brain tissues (gray and white matters)” value [6] was “low”, the “specific binding, gray matter homogenates of AD” value [6] was “detected predominantly in the gray matter homogenates of AD” and the “specific binding, white matter homogenates of AD brain” value [6] was “very low or nonexistent”.

For `CN(C)c1ccc(-c2cn(-c3ccc(OCCO)c([123I])c3)nn2)cc1` [Compound 33, 2-(4-(4-(4-(dimethylamino)phenyl)-1H-1,2,3-triazol-1-yl)-2-iodophenoxy)ethanol], the “Biodistribution Brain” value ([7]; 2 min) was 3.69 ± 0.14 % dose/g, the “Biodistribution Brain” value ([7]; 60 min) was 0.25 ± 0.03 % dose/g and the Ki (Amyloid Plaque [8]) was 7.5 ± 0.5 nM. For the same molecule, the Selectivity (CNS receptors) was “No high”.

With `CN(C)c1ccc(-c2cn(-c3ccc(OCCC[18F])cc3)nn2)cc1` [[^18F]17b] the “bone uptake (in vivo defluorination)” value [4] was 18.59 % dose/g, the “brain washout index (brain2 min/brain30 min)” value [4] was 2.31 and the “remaining in the brain” value [4] was 1-2 % dose/g. The Aβ plaque labeling [5] was “most distinctive Aβ plaque-labeling”, the “white matter (background) labeling” value [5] was “minimal level of background in the white matter areas” and the “log P” value [3] was 2.7.

With `CN(C)c1ccc(-c2cn(-c3ccc(OCCO)c([123I])c3)nn2)cc1` [^123I-33, 2-(4-(4-(4-(dimethylamino)phenyl)-1H-1,2,3-triazol-1-yl)-2-[^123I]iodophenoxy)ethanol] the “% total counted” value ([7]; 2 min) was 90.41 ± 5.38%, the “Biodistribution Pancreas” value ([7]; 2 min) was 0.90 ± 0.12 % dose/organ and the “Biodistribution Pancrease” value ([7]; 2 min) was 5.32 ± 0.08 % dose/g. The “% total counted” value ([7]; 60 min) was 81.43 ± 5.66%, the “Biodistribution Pancreas” value ([7]; 60 min) was 0.25 ± 0.11 % dose/organ and the “Biodistribution Pancrease” value ([7]; 60 min) was 1.35 ± 0.52 % dose/g. For the same molecule, the “% total counted” value ([7]; 120 min) was 80.05 ± 6.33%, the “Biodistribution Pancreas” value ([7]; 120 min) was 0.19 ± 0.09 % dose/organ and the “Biodistribution Pancrease” value ([7]; 120 min) was 1.09 ± 0.46 % dose/g. The “% total counted” value ([7]; 180 min) was 81.95 ± 4.47%, the “Biodistribution Pancreas” value ([7]; 180 min) was 0.22 ± 0.03 % dose/organ and the “Biodistribution Pancrease” value ([7]; 180 min) was 1.29 ± 0.14 % dose/g. For the same molecule, the “brain penetration and clearance” value ([7]; normal mice) was “readily penetrated and was rapidly cleared from the brain”, the logD [3] was 3.25 and the logP ([3]; 1-octanol/buffer (0.1 M phosphate)) was 3.25. The “labeling of Aβ plaques in sections from patients with pathologically confirmed AD” value (Aβ plaques) was “specifically labeled Aβ plaques”, the “estimated exposure of lower large intestine” value [9] was “approximately 3.8 rem” and the “estimated exposure of upper large intestine” value [9] was “approximately 3.3 rem”. For the same molecule, the “estimated human effective dose (ED)” value [9] was “approximately 1.26 rem”.
